Assay results: publication PMC11532403 (Signal Transduction and Targeted Therapy, 2024)
Like-named read-outs stand apart in the source and are kept apart here.

Experiments:
TT cells (RET^C634W) = experiment: Proliferation assay (CellTiter-Glo); type: cell-based; conditions: Homo sapiens, 72 hours, read-out: Cellular Viability IC50
Method: The cell lines HEK293T, Baf3, TT cell and NIH-3T3 were obtained from the Cell Resource Center, Peking Union Medical College (PCRC). […] All stably transformed BaF3 cells were cultured in RPMI 1640 without IL‐3. […] Cells were cultured at 37 °C under 5 % CO2 and high humidity conditions. […] Cell viability was assessed by luminescence using CellTiter-Glo 2.0 assay (Promega). IC50 curve fitting was performed using GraphPad Prism 9.0.

[1] = tested on: RET signaling in BaF3-CCDC6-RET^V804M/M918T cells; experiment: RET signaling pathway phosphorylation in cells; type: cell-based
[2] = tested on: Baf3-CCDC6-RET^M918T xenograft; experiment: Tumor xenograft model; type: in vivo, BALB/c nude mice; conditions: 9 days
Method: (§1) All procedures relating to animal handling, care, and treatment were performed according to the Beijing Laboratory Animal Management Regulations. 6-week-old male BALB/c nude mice were inoculated subcutaneously into the flank with Baf3-CCDC6-RET^WT (5*10^6 cells/ 0.1 mL/ each), Baf3-CCDC6-RET^M918T (5*10^6 cells/0.1 mL/each), Baf3-CCDC6-RET^V804M (5*10^6 cells/ 0.1 mL/ each), or HEK293T-KIF5B-RET^V804M (5*10^6 cells/ 0.1 mL/ each). Mice were randomized by tumor size into groups of 10 to 12 when tumor volume reached approximately 100-150 mm^3. […] Tumor size and body weight were measured two times each week, and tumor volume was calculated with the following formula: [length × (width)^2]/ 2. Statistical significance was calculated by using two-way ANOVA test to assess the difference in tumor volumes between the control (vehicle-treated) and treatment groups.

[3] = tested on: Baf3-CCDC6-RET^V804M xenograft; experiment: Tumor xenograft model; type: in vivo, BALB/c nude mice; conditions: 9 days
Method: as §1

[4] = tested on: Baf3-CCDC6-RET^WT xenograft; experiment: Tumor xenograft model; type: in vivo, BALB/c nude mice
Method: as §1

[5] = tested on: HEK293T-KIF5B-RET^V804M xenograft; experiment: Tumor xenograft model; type: in vivo, BALB/c nude mice; conditions: 14 days
Method: as §1

respiratory system = experiment: Respiratory safety pharmacology; type: in vivo, SD rats; conditions: single oral, males 15-40, females 30-80 mg/kg
Method: All rats were evaluated by cage-side observation, detailed clinical observation, body weight and respiratory parameters (tidal volume, minute tidal volume and respiratory rate).

[6] = Pharmacokinetics in beagles; type: in vivo; conditions: both sexes, beagle, dog, plasma, po
Text: Absorption and elimination in the body may both gradually tend towards saturation. In addition, there was no statistically significant difference in plasma pharmacokinetic parameters between female and male beagles administered SY-5007 by gavage alone.

[7] = Plasma protein binding, rapid equilibrium dialysis; type: in vitro ADME; conditions: rat, read-out: Plasma protein binding rate (converted)
CYP3A4 = experiment: CYP induction in hepatocytes; type: in vitro ADME, human; conditions: 1, 5, 50 μM, three donors
[8] = Acute toxicity, single oral gavage; conditions: both sexes, beagle, dog, in vivo, read-out: MTD, single dose
[9] = 28-day repeat-dose toxicity; type: in vivo; conditions: SD, rat, plasma, po; for AUC(0-t): read-out: AUClast at STD10, day 28; for Cmax: read-out: Cmax at STD10, day 28
SD rats = experiment: 28-day repeat-dose toxicity; type: in vivo
[10] = tested on: Salmonella typhimurium and Escherichia coli; type: cell-based
[11] = high-dose study, 10 mg/kg (so in the source)
[12] = preclinical SD rat repeated administration

In the case of COc1ccc(CN2C3CC2CN(c2ccc(-c4cc(N5CC(C)(O)C5)cn5ncc(C#N)c45)cn2)C3)cn1 [SY-5007, 6-(3-hydroxy-3-methylazetidin-1-yl)-4-(6-(6-((6-methoxypyridin-3-yl)methyl)-3,6-diazabicyclo[3.1.1]heptan-3-yl)pyridin-3-yl)pyrazolo[1,5-a]pyridine-3-carbonitrile], the IC50 (TT cells (RET^C634W)) is reported as 9.11 nM, the Concentration of saturation [1] is reported as 100 nM and the “Concentration with significant inhibitory effect on RET signaling” value [1] is reported as 10 nM. The TGI ([2]; 10 mg/kg oral) was 12.4%, the TGI ([2]; 20 mg/kg oral) was 40.9% and the TGI ([2]; 40 mg/kg oral) was 93.0%. For the same compound, the TGI ([3]; 10 mg/kg oral) was 35.4%, the TGI ([3]; 20 mg/kg oral) was 85.3% and the TGI ([3]; 40 mg/kg oral) was 109%. It also gave a TGI ([4]; 3 mg/kg twice daily, 13 days) of 59.2%, a TGI ([4]; 6 mg/kg twice daily, 13 days) of 80.1% and a TGI ([4]; 12 mg/kg twice daily, 13 days) of 93.5%. The TGI [4, 11] was 112%, the “Tumor regression rate (REG)” value [4, 11] was 97.3% and the TGI ([4]; high-dose study, 20 mg/kg) was 107%. The “Tumor regression rate (REG)” value ([4]; high-dose study, 20 mg/kg) was 57.7%, the “Tumor regression rate (REG)” value ([4]; high-dose study, 40 mg/kg (so in the source)) was 0% and the TGI ([5]; 10 mg/kg twice daily) was 40.7%. The TGI ([5]; 20 mg/kg twice daily) was 70.3%, the TGI ([5]; 40 mg/kg twice daily) was 94.1% and the Respiratory effects (respiratory system) was “nor did it show any effects on the respiratory parameters”. The bioavailability ([6]; 2.5 mg/kg) was 56.6%, the bioavailability ([6]; 5 mg/kg) was 74.1% and the bioavailability ([6]; 10 mg/kg) was 33.9%. The AUC(0-inf) ([6]; gavage 2.5 mg/kg) was 3760 ng·h/mL, the Cmax ([6]; gavage 2.5 mg/kg) was 758 ng/mL and the AUC(0-inf) ([6]; gavage 5 mg/kg) was 9850 ng·h/mL. It also gave a Cmax ([6]; gavage 5 mg/kg) of 1630 ng/mL, an AUC(0-inf) ([6]; gavage 10 mg/kg) of 9030 ng·h/mL and a Cmax ([6]; gavage 10 mg/kg) of 1440 ng/mL. The Tmax ([6]; gavage 2.5, 5, 10 mg/kg) was 0.5 to 2 h, the half-life ([6]; gavage 2.5-10 mg/kg) was 4.81 to 7.53 h and the MRT inf ([6]; gavage 2.5-10 mg/kg, read-out: MRTINF_obs) was 5.75 to 11.4 h. The fraction unbound [7] was 0.034, the CYP3A4 induction (CYP3A4) was “no induction” and the MTD [8] was 200 mg/kg. The AUC(0-t) ([9]; female, females 60 mg/kg) was 122000 ng·h/mL, the Cmax ([9]; female, females 60 mg/kg) was 14900 ng/mL and the AUC(0-t) ([9]; male, males 30 mg/kg) was 111000 ng·h/mL. For the same compound, the Cmax ([9]; male, males 30 mg/kg) was 8160 ng/mL, the “STD10” value (SD rats; female SD rats, GLP long toxicity study) was 60 mg/kg and the STD10 (SD rats; females, 28 days) was 60 mg/kg. For the same compound, the “STD10” value (SD rats; male SD rats, GLP long toxicity study) was 30 mg/kg, the STD10 (SD rats; males, 28 days) was 30 mg/kg and the “Electrolyte abnormalities (blood PK)” value (SD rats; [12]) was “? Abnormalities such as blood PK were found in the preclinical SD rat and Beagle repeated administration test of this product, and the relevant regulations were carried out in consideration of the fact that similar mechanism of action drugs have been reported”. For the same compound, the “Plasma protein: TP, ALB, A/G” value (SD rats; [12]) was “? TP, ALB, A/G were abnormal in the repeated administration test of preclinical SD rats of this product, and considering that drugs with similar mechanisms of action have been reported, relevant provisions are made”, the “TG (hyperlipidemia)” value (SD rats; [12]) was “? TG is abnormal in the repeated administration test of preclinical SD rats of this product, and considering that drugs with similar mechanisms of action have been reported, relevant provisions are made” and the “Bleeding tendency: gastric mucosa and ileum findings” value (SD rats; preclinical SD rats, repeated dosing) was “? This drug was found to have gastric mucosal reddening and ileal discolouration in preclinical SD rats and Beagle dogs in repeated dosing tests, so the relevant provisions were made”. The “Kidney: creatinine” value (SD rats; repeat dose study in SD rats) was “elevated creatinine” and the Ames test result [10] was “negative”.
